Assay results taken from patent publication US9828379B2 (priority 2013, dated 2017).

How the values were obtained:
[1] = molecular target: T1, FAAH (Mus musculus, UniProt O08914); assay: biochemical; conditions: in vitro competitive ABPP
T1 sequence (O08914 1-579): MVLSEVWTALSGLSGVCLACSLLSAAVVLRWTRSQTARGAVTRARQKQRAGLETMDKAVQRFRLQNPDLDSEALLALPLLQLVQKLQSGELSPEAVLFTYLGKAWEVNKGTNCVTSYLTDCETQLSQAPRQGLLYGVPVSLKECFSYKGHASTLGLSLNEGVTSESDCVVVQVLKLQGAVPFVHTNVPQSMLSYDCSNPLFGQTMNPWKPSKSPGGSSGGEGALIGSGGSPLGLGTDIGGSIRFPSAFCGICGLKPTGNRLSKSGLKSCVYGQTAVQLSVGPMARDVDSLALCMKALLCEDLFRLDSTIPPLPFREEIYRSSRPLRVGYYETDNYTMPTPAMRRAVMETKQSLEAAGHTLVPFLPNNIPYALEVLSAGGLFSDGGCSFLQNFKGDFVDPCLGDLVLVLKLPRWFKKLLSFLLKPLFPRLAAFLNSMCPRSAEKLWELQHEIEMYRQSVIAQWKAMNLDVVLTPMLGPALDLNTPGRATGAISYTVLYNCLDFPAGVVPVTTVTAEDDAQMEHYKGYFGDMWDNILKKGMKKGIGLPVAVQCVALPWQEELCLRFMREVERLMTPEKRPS

[2] = molecular target: T2, ABHD6 (Mus musculus, UniProt Q8R2Y0); assay: biochemical; conditions: in vitro competitive ABPP
T2 sequence (Q8R2Y0 1-336): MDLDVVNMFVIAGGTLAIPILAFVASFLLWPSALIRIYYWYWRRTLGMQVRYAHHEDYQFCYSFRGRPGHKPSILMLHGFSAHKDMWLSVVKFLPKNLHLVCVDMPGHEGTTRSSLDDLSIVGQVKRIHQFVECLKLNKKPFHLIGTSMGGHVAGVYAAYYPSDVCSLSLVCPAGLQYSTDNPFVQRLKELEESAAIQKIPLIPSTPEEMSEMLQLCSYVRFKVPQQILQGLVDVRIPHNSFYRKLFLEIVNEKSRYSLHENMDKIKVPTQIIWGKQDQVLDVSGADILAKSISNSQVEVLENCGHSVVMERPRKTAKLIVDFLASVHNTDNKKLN

[3] = molecular target: T1, FAAH; assay: In vitro competitive activity-based protein profiling (Table 2, % inhibition at 1 μM); type: biochemical; conditions: read-out: % Inhibition at 1 μM FAAH
[4] = molecular target: T2, ABHD6; assay: as above; type: biochemical; conditions: read-out: % Inhibition at 1 μM ABHD6
[5] = molecular target: T3, MAGL (Mus musculus, UniProt O35678); assay: as above; type: biochemical; conditions: read-out: % Inhibition at 1 μM MAGL
T3 sequence (O35678 1-303): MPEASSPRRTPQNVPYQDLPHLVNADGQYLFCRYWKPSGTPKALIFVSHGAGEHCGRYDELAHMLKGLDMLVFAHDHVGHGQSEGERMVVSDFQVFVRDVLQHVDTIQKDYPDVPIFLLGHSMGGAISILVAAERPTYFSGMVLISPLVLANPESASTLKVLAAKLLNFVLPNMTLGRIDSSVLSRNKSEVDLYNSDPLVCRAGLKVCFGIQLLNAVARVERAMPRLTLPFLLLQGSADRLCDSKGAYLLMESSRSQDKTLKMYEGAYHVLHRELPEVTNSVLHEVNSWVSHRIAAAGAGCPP
Procedure: After 30 min, FP—Rh (1.0 μL, 50 μM in DMSO) was added and the mixture was incubated for another 30 min at 37° C. Reactions were quenched with SDS loading buffer (50 μL-4×) and run on SDS-PAGE.
Cell lysates were diluted with mock proteomes for use in competitive ABPP experiments.

[6] = molecular target: T3, MAGL; assay: biochemical; conditions: mouse; in vitro competitive ABPP; read-out: Mouse (IC50 value, nM) MAGL

| SMILES | IC50 [1] | IC50 [2] | inhibition at 1 µM [3] | inhibition at 1 µM [4] | inhibition at 1 µM [5] | IC50 [6] |
| --- | --- | --- | --- | --- | --- | --- |
| Cc1cccc(CN2CC3CN(C(=O)OC(C(F)(F)F)C(F)(F)F)CC3C2)c1N1CCOCC1 (stereo not drawn) [Example 41, 1,1,1,3,3,3-Hexafluoropropan-2-yl 5-[[3-methyl-2-(morpholin-4-yl)phenyl]methyl]-octahydropyrrolo[3,4-c]pyrrole-2-carboxylate] | 1000 to 10000 nM | 1000 to 10000 nM | < 25% | < 25% | > 75% | 100 to 1000 nM |
| O=C(ON1C(=O)CCC1=O)N1CC2CN(Cc3ccc(N4CCOCC4)cc3Cl)CC2C1 (stereo not drawn) [Example 80, 2,5-Dioxopyrrolidin-1-yl 5-(2-chloro-4-morpholinobenzyl)hexahydropyrrolo[3,4-c]pyrrole-2(1H)-carboxylate] | 1000 to 10000 nM | 1000 to 10000 nM | 25 to 75% | < 25% | 25 to 75% | 100 to 1000 nM |
| CC1COCCN1c1cc(F)ccc1CN1CC2CN(C(=O)OC(C(F)(F)F)C(F)(F)F)CC2C1 (stereo not drawn) [Example 16, 1,1,1,3,3,3-Hexafluoropropan-2-yl 5-[[4-fluoro-2-(3-methylmorpholin-4-yl)phenyl]methyl]-octahydropyrrolo[3,4-c]pyrrole-2-carboxylate] | 1000 to 10000 nM | 1000 to 10000 nM | < 25% | < 25% | > 75% | < 100 nM |
| CC(C)c1ccc(CN2CC3CN(C(=O)OC(C(F)(F)F)C(F)(F)F)CC3C2)c(N2CCCC2)c1 (stereo not drawn) [Example 23, 1,1,1,3,3,3-Hexafluoropropan-2-yl 5-[[4-(propan-2-yl)-2-(pyrrolidin-1-yl)phenyl]methyl]-octahydropyrrolo[3,4-c]pyrrole-2-carboxylate] | 1000 to 10000 nM | 1000 to 10000 nM | < 25% | < 25% | > 75% | 100 to 1000 nM |
| O=C(OC(C(F)(F)F)C(F)(F)F)N1CC2CN(Cc3ccc(Cl)cc3N3CCn4ncnc4C3)CC2C1 (stereo not drawn) [Example 34, 1,1,1,3,3,3-Hexafluoropropan-2-yl 5-(4-chloro-2-(5,6-dihydro-[1,2,4]triazolo[1,5-a]pyrazin-7(8H)-yl)benzyl)-hexahydropyrrolo[3,4-c]pyrrole-2(1H)-carboxylate] | 1000 to 10000 nM | 100 to 1000 nM | 25 to 75% | 25 to 75% | > 75% | < 100 nM |
| CC(=O)NC1CCN(c2cccc(CN3CC4CN(C(=O)OC(C(F)(F)F)C(F)(F)F)CC4C3)c2C)CC1 (stereo not drawn) [Example 151, 1,1,1,3,3,3-hexafluoropropan-2-yl 5-[[3-(4-acetamidopiperidin-1-yl)-2-methylphenyl]methyl]-octahydropyrrolo[3,4-c]pyrrole-2-carboxylate] | 1000 to 10000 nM | 1000 to 10000 nM | < 25% | 25 to 75% | > 75% | < 100 nM |
| O=C(OC(C(F)(F)F)C(F)(F)F)N1CC2CN(Cc3cccc(Cl)c3N3C4CCC3COC4)CC2C1 (stereo not drawn) [Example 43, 1,1,1,3,3,3-Hexafluoropropan-2-yl 5-[(3-chloro-2-[3-oxa-8-azabicyclo[3.2.1]octan-8-yl]phenyl)methyl]-octahydropyrrolo[3,4-c]pyrrole-2-carboxylate] | 1000 to 10000 nM | 1000 to 10000 nM | < 25% | < 25% | > 75% | < 100 nM |
| Cc1c(CN2CC3CN(C(=O)OC(C(F)(F)F)C(F)(F)F)CC3C2)cccc1C(=O)N1CCCC1 (stereo not drawn) [Example 186, 1,1,1,3,3,3-hexafluoropropan-2-yl 5-(2-methyl-3-(pyrrolidine-1-carbonyl)benzyl)hexahydropyrrolo[3,4-c]pyrrole-2(1H)-carboxylate] | 1000 to 10000 nM | 1000 to 10000 nM | < 25% | 25 to 75% | > 75% | < 100 nM |
| O=C(OC(C(F)(F)F)C(F)(F)F)N1CC2CN(Cc3cc(CN4CCCCC4)cc(OC(F)(F)F)c3)CC2C1 (stereo not drawn) [Example 184, 1,1,1,3,3,3-hexafluoropropan-2-yl 5-(3-(piperidin-1-ylmethyl)-5-(trifluoromethoxy)benzyl)hexahydropyrrolo[3,4-c]pyrrole-2(1H)-carboxylate] | 1000 to 10000 nM | 1000 to 10000 nM | < 25% | < 25% | > 75% | 100 to 1000 nM |
| Cn1cc(CN2CC3CN(C(=O)ON4C(=O)CCC4=O)CC3C2)c(-c2ccccc2)n1 (stereo not drawn) [Example 114, 2,5-Dioxopyrrolidin-1-yl 5-((1-methyl-3-phenyl-1H-pyrazol-4-yl)methyl)hexahydropyrrolo[3,4-c]pyrrole-2(1H)-carboxylate] | > 10000 nM | 1000 to 10000 nM |  |  |  | 100 to 1000 nM |
| CC(=O)NC1CN(c2ccc(Cl)cc2CN2CC3CN(C(=O)OC(C(F)(F)F)C(F)(F)F)CC3C2)C1 (stereo not drawn) [Example 7, 1,1,1,3,3,3-Hexafluoropropan-2-yl 5-(2-(3-acetamidoazetidin-1-yl)-5-chlorobenzyl)hexahydropyrrolo[3,4-c]pyrrole-2(1H)-carboxylate] | 1000 to 10000 nM | 1000 to 10000 nM |  |  |  | < 100 nM |
| O=C(ON1C(=O)CCC1=O)N1CC2CN(Cc3ccc(N4CCOCC4)cc3F)CC2C1 (stereo not drawn) [Example 79, 2,5-Dioxopyrrolidin-1-yl 5-(2-fluoro-4-morpholinobenzyl)hexahydropyrrolo[3,4-c]pyrrole-2(1H)-carboxylate] | 1000 to 10000 nM | 1000 to 10000 nM |  |  |  | 1000 to 10000 nM |
| CCn1ncc(CN2CC3CN(C(=O)OC(C(F)(F)F)C(F)(F)F)CC3C2)c1C(=O)N1CCOCC1 (stereo not drawn) [Example 73, 1,1,1,3,3,3-Hexafluoropropan-2-yl 5-((1-ethyl-5-(morpholine-4-carbonyl)-1H-pyrazol-4-yl)methyl)hexahydropyrrolo[3,4-c]pyrrole-2(1H)-carboxylate] | > 10000 nM | > 10000 nM |  |  |  | 100 to 1000 nM |
| CS(=O)(=O)NC1CCN(c2ccc(Cl)cc2CN2CC3CN(C(=O)OC(C(F)(F)F)C(F)(F)F)CC3C2)CC1 (stereo not drawn) [Example 6, 1,1,1,3,3,3-Hexafluoropropan-2-yl 5-(5-chloro-2-(4-(methylsulfonamido)piperidin-1-yl)benzyl)hexahydropyrrolo[3,4-c]pyrrole-2(1H)-carboxylate] | 1000 to 10000 nM | 1000 to 10000 nM |  |  |  | 100 to 1000 nM |
| O=C(ON1C(=O)CCC1=O)N1CC2CN(Cc3ccc(Cl)cc3N3CCC(C(=O)N4CCCC4)CC3)CC2C1 (stereo not drawn) [Example 111, 2,5-Dioxopyrrolidin-1-yl 5-[(4-chloro-2-[4-[(pyrrolidin-1-yl)carbonyl]piperidin-1-yl]phenyl)methyl]-octahydropyrrolo[3,4-c]pyrrole-2-carboxylate] |  |  | < 25% | < 25% | 25 to 75% |  |
| CC(=O)NC1CCN(c2ccc(Cl)cc2CN2CC3CN(C(=O)OC(C(F)(F)F)C(F)(F)F)CC3C2)CC1 (stereo not drawn) [Example 5, 1,1,1,3,3,3-Hexafluoropropan-2-yl 5-(2-(4-acetamidopiperidin-1-yl)-5-chlorobenzyl)hexahydropyrrolo[3,4-c]pyrrole-2(1H)-carboxylate] | 1000 to 10000 nM | 1000 to 10000 nM |  |  |  | 100 to 1000 nM |
